Measurements taken from patent US20140303109A1 (priority 2010, published 2014).

Assays:
[1] = test system: NF-κB DNA binding activity; assay: EMSA for NF-κB DNA binding activity in tumor tissue; assay type: in vivo, mice; settings: MIA PaCa-2 tumors
Procedure: Nuclear extracts were prepared from tumor tissue induced by the MIA PaCa-2 cells using an homogenizer with 400 μl of ice cold lysis buffer extracted as described earlier. EMSA was performed using the Odyssey Infrared Imaging System with NF-κβ 1RDye labeled oligonucleotide from LI-COR, Inc. (Lincoln, Nebr.). An NF-Kβ competition control study was conducted using unlabeled NF-Kβ consensus oligonucleotide. The samples were loaded and run at 30 mA for 1 hour. The gel was scanned using Odyssey Infrared Imaging System (LI-COR, Inc.).

miR-200b and miR-200c = assay: Real-time RT-PCR of miR-200b and miR-200c in PC cell lines; assay type: cell-based, human; settings: 72 h; BxPC-3, MIAPaCa-E, MIAPaCaM
Procedure: The expression of miRNAs (miRNA-200a, miR-200b, and miR-21) in all three pancreatic cancer cell lines, was measured with a TaqMan MicroRNA Assay kit (Applied Biosystems, Carlsbad, Calif.) following the manufacturer's protocol. […] Real-time RT-PCR reactions were then carried out in a total volume of 25 μl reaction mixture, as described by Li, et al., id., using Smart Cycler II (Cepheid, Sunnyvale, Calif.). The data were analyzed using Ct method and were normalized by RNU6B expression in each sample.

PGE2 = PGE2 immunoassay, three PC lines; assay type: cell-based, human; settings: 24 h serum-free; CDF or CUR 1-4 μMol/L, GEM 10 nMol/L
[2] = test system: NF-κB DNA binding activity; assay: EMSA for NF-κB DNA binding activity, three PC lines; assay type: cell-based, human; settings: 72 h; CDF/CUR 1 or 4 μMol/L, GEM 10 nMol/L
Procedure: The DNA binding activity of the nuclear transcription factor, NF-κB was assessed in the BxPC-3, MIAPaCa-E, and MIAPaCa-M cell lines by EMSA. […] The cells were lysed in 400 μl of lysis buffer and the reaction was set up as described earlier in Ali, et al., id. The gel was scanned using an Odyssey Infrared Imaging System, (LI-COR, Inc., Lincoln, Nebr.). Equal protein loading was ensured by immunoblotting 10 μg of nuclear protein and probing with anti-retinoblastoma antibody.

Nc1ccn([C@@H]2O[C@H](CO)[C@@H](O)C2(F)F)c(=O)n1 [GEM, gemcitabine]
NF-κβ activation in tumor tissue [1]: activated NF-κβ levels
expression of miR-200b and miR-200c (miR-200b and miR-200c): increased expression of miR-200b and miR-200c
PGE2 secretion level (PGE2): substantial increase in the level of PGE2 secretion
NF-κβ DNA binding activity [2]: activation of NF-κβ in all three cell lines
